Data as given in ChEMBL document CHEMBL3046635, “Synthesis and Herbicidal Activity of New Pyrazole-4-carboxamide Derivatives” (J Pestic Sci, 2004).
The source made the active and inactive calls.

What follows are molecules tested on Rotala indica (assay: Post-emergence herbicidal activity against Rotala indica assessed as bleaching of stem/leaf parts). Details: not given.
Type: functional, organism-based

Question: How did the Activity turn out when Cn1cc(C(=O)NOc2ccc(F)cc2)c(OCc2cccc(C(F)(F)F)c2)n1 was run?
Answer: Active

What follows are molecules tested on Lindernia procumbens (assay: Pre-emergence herbicidal activity against Lindernia procumbens at 500 g a.i/ha measured after 14 days). Details: not given.
Type: functional, organism-based

Question: How did the Activity turn out when Cn1cc(C(=O)NOc2ccc(F)cc2)c(OCc2cccc(C(F)(F)F)c2)n1 was run?
Answer: Active

What follows are molecules tested on Eleocharis acicularis (assay: Pre-emergence herbicidal activity against Eleocharis acicularis assessed as bleaching of stem/leaf parts). Details: not given.
Type: functional, organism-based

Question: Which Activity does the source give for Cn1cc(C(=O)NOc2ccc(F)cc2)c(OCc2cccc(C(F)(F)F)c2)n1 here?
Answer: Active

Each molecule was assayed on Lindernia procumbens (assay: Pre-emergence herbicidal activity against Lindernia procumbens at 100 g a.i/ha measured after 14 days). Details: not given.
Type: functional, organism-based

Question: For Cn1cc(C(=O)NOc2ccc(F)cc2)c(OCc2cccc(C(F)(F)F)c2)n1, which Activity is on record?
Answer: Active

The molecules below were run on Lindernia procumbens (assay: Pre-emergence herbicidal activity against Lindernia procumbens assessed as bleaching of stem/leaf parts). Details: not given.
Type: functional, organism-based

Question: With Cn1cc(C(=O)NOc2ccc(F)cc2)c(OCc2cccc(C(F)(F)F)c2)n1 as the molecule, how does the Activity read?
Answer: Active

These molecules were tested on Schoenoplectiella juncoides (assay: Pre-emergence herbicidal activity against Schoenoplectiella juncoides assessed as bleaching of stem/leaf parts). Details: not given.
Type: functional, organism-based

Question: Which Activity does the source give for Cn1cc(C(=O)NOc2ccc(F)cc2)c(OCc2cccc(C(F)(F)F)c2)n1 here?
Answer: Active

The molecules below were run on Schoenoplectiella juncoides (assay: Post-emergence herbicidal activity against Schoenoplectiella juncoides assessed as bleaching of stem/leaf parts). Details: not given.
Type: functional, organism-based

Question: Cn1cc(C(=O)NOc2ccc(F)cc2)c(OCc2cccc(C(F)(F)F)c2)n1 was tested. Which Activity did it give?
Answer: Active

The molecules below were run on Rotala indica (assay: Pre-emergence herbicidal activity against Rotala indica assessed as bleaching of stem/leaf parts). Details: not given.
Type: functional, organism-based

Question: How did the Activity turn out when Cn1cc(C(=O)NOc2ccc(F)cc2)c(OCc2cccc(C(F)(F)F)c2)n1 was run?
Answer: Active

Each molecule was assayed on Elatine triandra (assay: Post-emergence herbicidal activity against Elatine triandra assessed as bleaching of stem/leaf parts). Details: not given.
Type: functional, organism-based

Question: Which Activity does the source give for Cn1cc(C(=O)NOc2ccc(F)cc2)c(OCc2cccc(C(F)(F)F)c2)n1 here?
Answer: Active

What follows are molecules tested on Echinochloa oryzicola (assay: Pre-emergence herbicidal activity against Echinochloa oryzicola at 100 g a.i/ha measured after 14 days). Details: not given.
Type: functional, organism-based

Question: With Cn1cc(C(=O)NOc2ccc(F)cc2)c(OCc2cccc(C(F)(F)F)c2)n1 as the molecule, how does the Activity read?
Answer: inactive

The molecules below were run on Ammannia multiflora (assay: Pre-emergence herbicidal activity against Ammannia multiflora assessed as bleaching of stem/leaf parts). Details: not given.
Type: functional, organism-based

Question: Cn1cc(C(=O)NOc2ccc(F)cc2)c(OCc2cccc(C(F)(F)F)c2)n1 was tested. Which Activity did it give?
Answer: Active

What follows are molecules tested on Pontederia vaginalis (assay: Pre-emergence herbicidal activity against Monochoria vaginalis at 100 g a.i/ha measured after 14 days). Details: not given.
Type: functional, organism-based

Question: Cn1cc(C(=O)NOc2ccc(F)cc2)c(OCc2cccc(C(F)(F)F)c2)n1 was tested. Which Activity did it give?
Answer: Active

What follows are molecules tested on Schoenoplectiella juncoides (assay: Pre-emergence herbicidal activity against Schoenoplectiella juncoides at 500 g a.i/ha measured after 14 days). Details: not given.
Type: functional, organism-based

Question: With Cn1cc(C(=O)NOc2ccc(F)cc2)c(OCc2cccc(C(F)(F)F)c2)n1 as the molecule, how does the Activity read?
Answer: Active

Each molecule was assayed on Pontederia vaginalis (assay: Pre-emergence herbicidal activity against Monochoria vaginalis at 500 g a.i/ha measured after 14 days). Details: not given.
Type: functional, organism-based

Question: How did the Activity turn out when Cn1cc(C(=O)NOc2ccc(F)cc2)c(OCc2cccc(C(F)(F)F)c2)n1 was run?
Answer: Active

What follows are molecules tested on Echinochloa oryzicola (assay: Post-emergence herbicidal activity against Echinochloa oryzicola assessed as bleaching of stem/leaf parts). Details: not given.
Type: functional, organism-based

Question: Which Activity does the source give for Cn1cc(C(=O)NOc2ccc(F)cc2)c(OCc2cccc(C(F)(F)F)c2)n1 here?
Answer: Active

What follows are molecules tested on Ammannia multiflora (assay: Pre-emergence herbicidal activity against Ammannia multiflora at 100 g a.i/ha measured after 14 days). Details: not given.
Type: functional, organism-based

Question: Cn1cc(C(=O)NOc2ccc(F)cc2)c(OCc2cccc(C(F)(F)F)c2)n1 was tested. Which Activity did it give?
Answer: Active

What follows are molecules tested on Cyperus difformis (assay: Pre-emergence herbicidal activity against Cyperus difformis assessed as bleaching of stem/leaf parts). Details: not given.
Type: functional, organism-based

Question: Cn1cc(C(=O)NOc2ccc(F)cc2)c(OCc2cccc(C(F)(F)F)c2)n1 was tested. Which Activity did it give?
Answer: Active

These molecules were tested on Lindernia procumbens (assay: Post-emergence herbicidal activity against Lindernia procumbens assessed as bleaching of stem/leaf parts). Details: not given.
Type: functional, organism-based

Question: Which Activity does the source give for Cn1cc(C(=O)NOc2ccc(F)cc2)c(OCc2cccc(C(F)(F)F)c2)n1 here?
Answer: Active

These molecules were tested on Eleocharis acicularis (assay: Post-emergence herbicidal activity against Eleocharis acicularis assessed as bleaching of stem/leaf parts). Details: not given.
Type: functional, organism-based

Question: How did the Activity turn out when Cn1cc(C(=O)NOc2ccc(F)cc2)c(OCc2cccc(C(F)(F)F)c2)n1 was run?
Answer: Active

Each molecule was assayed on Cyperus difformis (assay: Pre-emergence herbicidal activity against Cyperus difformis at 100 g a.i/ha measured after 14 days). Details: not given.
Type: functional, organism-based

Question: Which Activity does the source give for Cn1cc(C(=O)NOc2ccc(F)cc2)c(OCc2cccc(C(F)(F)F)c2)n1 here?
Answer: inactive

Each molecule was assayed on Elatine triandra (assay: Pre-emergence herbicidal activity against Elatine triandra assessed as bleaching of stem/leaf parts). Details: not given.
Type: functional, organism-based

Question: With Cn1cc(C(=O)NOc2ccc(F)cc2)c(OCc2cccc(C(F)(F)F)c2)n1 as the molecule, how does the Activity read?
Answer: Active

These molecules were tested on Oryza sativa (assay: Phytotoxicity against Oryza sativa cv. Koshihikari (rice) at 100 g a.i/ha measured after 14 days). Details: in vivo, 336 h.
Type: organism-based

Question: How did the Activity turn out when Cn1cc(C(=O)NOc2ccc(F)cc2)c(OCc2cccc(C(F)(F)F)c2)n1 was run?
Answer: Non-toxic

What follows are molecules tested on Cyperus difformis (assay: Post-emergence herbicidal activity against Cyperus difformis assessed as bleaching of stem/leaf parts). Details: not given.
Type: functional, organism-based

Question: How did the Activity turn out when Cn1cc(C(=O)NOc2ccc(F)cc2)c(OCc2cccc(C(F)(F)F)c2)n1 was run?
Answer: Active

Each molecule was assayed on Ammannia multiflora (assay: Post-emergence herbicidal activity against Ammannia multiflora assessed as bleaching of stem/leaf parts). Details: not given.
Type: functional, organism-based

Question: How did the Activity turn out when Cn1cc(C(=O)NOc2ccc(F)cc2)c(OCc2cccc(C(F)(F)F)c2)n1 was run?
Answer: Active

What follows are molecules tested on Rotala indica (assay: Pre-emergence herbicidal activity against Rotala indica at 100 g a.i/ha measured after 14 days). Details: not given.
Type: functional, organism-based

Question: Cn1cc(C(=O)NOc2ccc(F)cc2)c(OCc2cccc(C(F)(F)F)c2)n1 was tested. Which Activity did it give?
Answer: Active

Each molecule was assayed on Echinochloa oryzicola (assay: Pre-emergence herbicidal activity against Echinochloa oryzicola at 500 g a.i/ha measured after 14 days). Details: not given.
Type: functional, organism-based

Question: Cn1cc(C(=O)NOc2ccc(F)cc2)c(OCc2cccc(C(F)(F)F)c2)n1 was tested. Which Activity did it give?
Answer: Active

What follows are molecules tested on Pontederia vaginalis (assay: Pre-emergence herbicidal activity against Monochoria vaginalis assessed as bleaching of stem/leaf parts). Details: not given.
Type: functional, organism-based

Question: With Cn1cc(C(=O)NOc2ccc(F)cc2)c(OCc2cccc(C(F)(F)F)c2)n1 as the molecule, how does the Activity read?
Answer: Active

Each molecule was assayed on Ammannia multiflora (assay: Pre-emergence herbicidal activity against Ammannia multiflora at 500 g a.i/ha measured after 14 days). Details: not given.
Type: functional, organism-based

Question: For Cn1cc(C(=O)NOc2ccc(F)cc2)c(OCc2cccc(C(F)(F)F)c2)n1, which Activity is on record?
Answer: Active

The molecules below were run on Elatine triandra (assay: Pre-emergence herbicidal activity against Elatine triandra at 100 g a.i/ha measured after 14 days). Details: not given.
Type: functional, organism-based

Question: For Cn1cc(C(=O)NOc2ccc(F)cc2)c(OCc2cccc(C(F)(F)F)c2)n1, which Activity is on record?
Answer: Active

What follows are molecules tested on Eleocharis acicularis (assay: Pre-emergence herbicidal activity against Eleocharis acicularis at 100 g a.i/ha measured after 14 days). Details: not given.
Type: functional, organism-based

Question: Cn1cc(C(=O)NOc2ccc(F)cc2)c(OCc2cccc(C(F)(F)F)c2)n1 was tested. Which Activity did it give?
Answer: Active

The molecules below were run on Rotala indica (assay: Pre-emergence herbicidal activity against Rotala indica at 500 g a.i/ha measured after 14 days). Details: not given.
Type: functional, organism-based

Question: With Cn1cc(C(=O)NOc2ccc(F)cc2)c(OCc2cccc(C(F)(F)F)c2)n1 as the molecule, how does the Activity read?
Answer: Active

Each molecule was assayed on Cyperus difformis (assay: Pre-emergence herbicidal activity against Cyperus difformis at 500 g a.i/ha measured after 14 days). Details: not given.
Type: functional, organism-based

Question: Which Activity does the source give for Cn1cc(C(=O)NOc2ccc(F)cc2)c(OCc2cccc(C(F)(F)F)c2)n1 here?
Answer: Active

What follows are molecules tested on Echinochloa oryzicola (assay: Pre-emergence herbicidal activity against Echinochloa oryzicola assessed as bleaching of stem/leaf parts). Details: not given.
Type: functional, organism-based

Question: With Cn1cc(C(=O)NOc2ccc(F)cc2)c(OCc2cccc(C(F)(F)F)c2)n1 as the molecule, how does the Activity read?
Answer: Active

The molecules below were run on Oryza sativa (assay: Phytotoxicity against Oryza sativa cv. Koshihikari (rice) at 500 g a.i/ha measured after 14 days). Details: in vivo, 336 h.
Type: organism-based

Question: Which Activity does the source give for Cn1cc(C(=O)NOc2ccc(F)cc2)c(OCc2cccc(C(F)(F)F)c2)n1 here?
Answer: Non-toxic

These molecules were tested on Schoenoplectiella juncoides (assay: Pre-emergence herbicidal activity against Schoenoplectiella juncoides at 100 g a.i/ha measured after 14 days). Details: not given.
Type: functional, organism-based

Question: How did the Activity turn out when Cn1cc(C(=O)NOc2ccc(F)cc2)c(OCc2cccc(C(F)(F)F)c2)n1 was run?
Answer: inactive

The molecules below were run on Pontederia vaginalis (assay: Post-emergence herbicidal activity against Monochoria vaginalis assessed as bleaching of stem/leaf parts). Details: not given.
Type: functional, organism-based

Question: Cn1cc(C(=O)NOc2ccc(F)cc2)c(OCc2cccc(C(F)(F)F)c2)n1 was tested. Which Activity did it give?
Answer: Active

What follows are molecules tested on Eleocharis acicularis (assay: Pre-emergence herbicidal activity against Eleocharis acicularis at 500 g a.i/ha measured after 14 days). Details: not given.
Type: functional, organism-based

Question: For Cn1cc(C(=O)NOc2ccc(F)cc2)c(OCc2cccc(C(F)(F)F)c2)n1, which Activity is on record?
Answer: Active

The molecules below were run on Elatine triandra (assay: Pre-emergence herbicidal activity against Elatine triandra at 500 g a.i/ha measured after 14 days). Details: not given.
Type: functional, organism-based

Question: Which Activity does the source give for Cn1cc(C(=O)NOc2ccc(F)cc2)c(OCc2cccc(C(F)(F)F)c2)n1 here?
Answer: Active
